Values quoted from earlier work in patent US8657943B2, “1-hydroxy-2-O-acyl-sn-glycero-3-phosphocholine compounds, preparation process, antifouling composition, process for its preparation, method to prevent fouling, method to turn a surface into an antifouling surface, and, covered surface” (UFRJ, IEAPM, UFF, priority 2010, dated 2014).

What was measured:
different cell types = conditions: very low concentrations
mussels = conditions: concentrations of up to 100 ng/L in seawater
Ostrea edulis = conditions: 75 days exposure, 0.24 μg/L

Substance	concentrations that trigger physiological responses (different cell types)	effect on the growth of mussels (mussels)	larval production (Ostrea edulis)	sex change male to female (Ostrea edulis)
1-O-alkyl-2-acetyl-sn-glycero-3-phosphocholine [platelet activating factor]	10^−12 to 10^−9 M			
tri-butyl tin [TBT]		significant reductions in the growth of mussels	completely inhibited	a delay in changing sex male to female was observed
